From patent US10076504B2, “Glucagon antagonists” (Ligand Pharmaceuticals, Inc., priority 2014, dated 2018)

Test: Single ascending dose study, safety and tolerability
Assay type: in vivo, human
Conditions: for Any study drug related TEAE / Gastrointestinal disorders Diarrhoea / Gastrointestinal disorders Nausea / Gastrointestinal disorders Vomiting / Nervous systems disorders Headache: Normal Healthy Volunteers, 6 subjects; for tolerability: single oral doses 2 to 480 mg in NHV, 40 mg in T2DM subjects
Experimental: Oral doses of IIIa were administered to normal healthy volunteers (NHV) and subjects with type 2 diabetes mellitus (T2DM). A single center, randomized, double-blind, placebo-controlled single ascending dose study was done in both NHV (n=48) and T2DM subjects (n=8). Dose escalation only occurred after review of safety and tolerability data from previous dose levels (n=8/cohort; 2-placebo & 6-IIIa). Dosing of the T2DM cohort was initiated only after the equivalent dose had been administered to NHV and safety data had been reviewed. All subjects were administered IIIa in the morning after an overnight fast with the exception of the NHV in the 40 mg cohort. NHV subjects in the 40 mg cohort initially received IIIa in a fasted state. Following a 3 week washout period, IIIa was readministered after breakfast at 40 mg to determine the effects of food consumption on pharmacokinetics.
This was a single center, randomized, double-blind, placebo-controlled single ascending dose study in both normal healthy volunteers (NHV) (n=48) and subjects with type 2 diabetes mellitus (T2DM) (n=8). All subjects were administered Formula IIIa as a solution formulated with Captisol® after an overnight fast with the exception of the NHV in the 40 mg cohort. The NHV 40 mg cohort initially received Formula IIIa in a fasted state. Following a washout period, subjects received 40 mg Formula IIIa after breakfast to explore the effects of food consumption on pharmacokinetics.
In type 2 diabetes mellitus (T2DM), inappropriately elevated levels of glucagon exacerbate hyperglycemia and its associated complications. Not wishing to be bound to a particular theory, it has been observed that antagonism of glucagon action reduces blood glucose levels and hemoglobin A1c in patients with T2DM. The novel, selective, orally bioavailable glucagon receptor antagonist, Formula IIIa (below), was investigated regarding its pharmacokinetics (PK), safety, and pharmacodynamics (PD) in a first-in-human, ascending, single-dose, double blind, placebo-controlled study in normal healthy (NH) and T2DM subjects (NCT01919684).

[1] = NHV and T2DM subjects, single dose

Compound: Cc1cc(C)c(-c2ccc(NC(=O)[C@H](Cc3ccc(C(=O)NCCS(=O)(=O)O)cc3)c3ccc(-c4ccc(C(C)(C)C)cc4)cc3)cc2)c(C)c1 [IIIa]
- cases of hypoglycemia (glucose <60 mg/dL) [1]: no cases of hypoglycemia
- serious adverse events [1]: no serious adverse events
- Any study drug related TEAE (2 mg): 0 (0.0)
- Gastrointestinal disorders Diarrhoea (2 mg): 0 (0.0)
- Gastrointestinal disorders Nausea (2 mg): 0 (0.0)
- Gastrointestinal disorders Vomiting (2 mg): 0 (0.0)
- Nervous systems disorders Headache (2 mg): 0 (0.0)
- Any study drug related TEAE (10 mg): 1 (16.7)
- Gastrointestinal disorders Diarrhoea (10 mg): 0 (0.0)
- Gastrointestinal disorders Nausea (10 mg): 0 (0.0)
- Gastrointestinal disorders Vomiting (10 mg): 0 (0.0)
- Nervous systems disorders Headache (10 mg): 1 (16.7)
- Any study drug related TEAE (40 mg): 0 (0.0)
- Gastrointestinal disorders Diarrhoea (40 mg): 0 (0.0)
- Gastrointestinal disorders Nausea (40 mg): 0 (0.0)
- Gastrointestinal disorders Vomiting (40 mg): 0 (0.0)
- Nervous systems disorders Headache (40 mg): 0 (0.0)
- Any study drug related TEAE (120 mg): 2 (33.3)
- Gastrointestinal disorders Diarrhoea (120 mg): 0 (0.0)
- Gastrointestinal disorders Nausea (120 mg): 0 (0.0)
- Gastrointestinal disorders Vomiting (120 mg): 0 (0.0)
- Nervous systems disorders Headache (120 mg): 2 (33.3)
- Any study drug related TEAE (240 mg): 2 (33.3)
- Gastrointestinal disorders Diarrhoea (240 mg): 0 (0.0)
- Gastrointestinal disorders Nausea (240 mg): 1 (16.7)
- Gastrointestinal disorders Vomiting (240 mg): 0 (0.0)
- Nervous systems disorders Headache (240 mg): 1 (16.7)
- Any study drug related TEAE (480 mg): 2 (33.3)
- Gastrointestinal disorders Diarrhoea (480 mg): 1 (16.7)
- Gastrointestinal disorders Nausea (480 mg): 1 (16.7)
- Gastrointestinal disorders Vomiting (480 mg): 1 (16.7)
- Nervous systems disorders Headache (480 mg): 0 (0.0)
- study drug related treatment emergent adverse events (TEAE), NHV vs T2DM subjects (single dose): observed in the NHV but not the T2DM subjects
- tolerability: well tolerated
- tolerability (listed as Formula IIIa): well tolerated and considered safe up to the highest dose tested
